The target of this experiment is T1, Human Erythrocyte G6PDH (Homo sapiens, UniProt P11413).
T1 construct: purified G6PDH from human erythrocytes; purchased Sigma Type XXVI; host or cells: human erythrocytes (natural source)
Description: Inhibition of purified glucose 6-phosphate dehydrogenase activity. Type of experiment: biochemical. Particulars: 0.01 U/ml Type XXVI G6PDH from human erythrocytes, vs DMSO vehicle-treated controls, read-out: PERCENT INHIBITION OF GLUCOSE 6-PHOSPHATE DEHYDROGENASE ACTIVITY

T1 sequence (P11413 whole entry): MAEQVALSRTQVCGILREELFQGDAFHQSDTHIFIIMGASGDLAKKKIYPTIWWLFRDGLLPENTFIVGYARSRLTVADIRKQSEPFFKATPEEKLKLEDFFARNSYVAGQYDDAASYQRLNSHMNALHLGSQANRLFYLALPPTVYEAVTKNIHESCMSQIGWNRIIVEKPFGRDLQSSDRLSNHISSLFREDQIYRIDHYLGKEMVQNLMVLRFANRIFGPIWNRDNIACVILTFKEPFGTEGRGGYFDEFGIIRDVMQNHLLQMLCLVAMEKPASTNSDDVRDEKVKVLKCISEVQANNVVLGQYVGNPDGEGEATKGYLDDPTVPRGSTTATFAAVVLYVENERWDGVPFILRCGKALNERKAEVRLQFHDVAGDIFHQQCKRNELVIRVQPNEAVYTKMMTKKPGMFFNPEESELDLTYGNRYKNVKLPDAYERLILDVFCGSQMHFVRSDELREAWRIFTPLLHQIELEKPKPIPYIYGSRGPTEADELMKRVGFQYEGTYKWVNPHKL

For the molecule `C[C@]12CC[C@H](O)C[C@@H]1CC[C@@H]1[C@@H]2CC[C@]2(C)C(=O)[C@H](Br)C[C@@H]12` [16α-BrEA, 16α-bromoepiandrosterone], for the setting “25 µM”, the inhibition at 25 µM was found to be 47 ± 6%. For the same molecule, the inhibition at 50 µM (50 µM) was determined as 57 ± 9%.

These data come from patent publication EP0934745B1, “Use of androsterone derivatives for inhibiting DNA binding of ap-1 and airway smooth muscle proliferation” (CHARLOTTE-MECKLENBURG HOSPITAL doing business as Carolinas …, priority 1998, dated 1999).
